One test deals with Tick. Put plainly: Tick repellency on skin. The class given is in vivo. The settings on record: on its own.
The next test relates to Fire ants. Put plainly: Spray test on fire ants. It counts as in vivo, Red Imported species. As for the experimental part:
The time various compositions take to both knock down (KD) and kill (TM) various pests was determined. As a control, results were compared using sodium lauryl sulfate by itself, and with the various fatty acids.
The tests were conducted for a maximum observation time of 30 minutes, after which time, the test, and all observations, was stopped.
Protocol: Fire ants (Red Imported species) were directly sprayed while traveling on the ground. The average amount of material per area was calculated. The amount of material to kill the Fire Ant was determined.

Take `CCCCCCCCCCCCOS(=O)(=O)[O-].[Na+]` [sodium lauryl sulfate]: the Repellency to ticks result with Tick is “not observed to be particularly repellent”. In the test with Fire ants, the “Amount of aqueous 10% SLS mixture to kill the fire ant” value is “around 20 ml”.

Values taken from patent publication US8142801B2, “Pesticidal compositions and methods of use thereof” (EcoBlend, LLC, priority 2009, dated 2012).
